Test results published in US8242250B2, “Nucleic acid molecule encoding a cystine knot polypeptide” (The University of Queensland, priority 1999, dated 2012).

Key:
[1] = system: Helicoverpa punctigera larvae; experiment: Bioassay with Haricot bean artificial diet, growth and development of larvae; assay type: in vivo
Description: Helicoverpa punctigera larvae were raised on artificial diets based on Haricot beans (Teakle et al. (13)). One litre of diet was composed of 234 g Haricot beans, 14 g agar, 700 ml water, 35 g Tortula yeast, 50 g wheatgerm, 3.5 g ascorbic acid, 1.1 g sorbic acid, 2.2 g p-hydroxybenzoic acid methyl ester, 0.2 g ampicillin, 0.2 g streptomycin, 16 mg prochloraz. The beans were soaked overnight in water, drained and homogenized to a fine paste. Wheatgerm, yeast and 300 ml of water were added. The agar was dissolved in 400 ml of boiling water and added to the mixture. The mixture was cooled to 50° C. before the addition of the remaining ingredients. The blended diet was poured into trays and after setting was used immediately or stored at −20° C. for no longer than two weeks. The test diet was supplemented with the Kalata B1 peptide (0.825 μmol/g of diet). Twenty newly emerged neonates were added to each diet and mortality was recorded every two days. Weight gain was recorded at the sixth day and then every second day thereafter. The larvae were reared in 1.5 ml eppendorfs microfuge tubes (one larva/tube) until day eight when they were transferred to individual plastic containers with lids (Solo (trademark) plastic portion cups, 28 ml) at the eight day. Larvae were fed small amounts of diet (40 mg) initially that was replaced as required to provide a continuous supply. The larvae were kept in a temperature controlled room at 25±1° C., 16:8 (L:D).
Most larvae on the control diet, however, had achieved fifth instar (FIGS. 13B, C).

[2] = system: Helicoverpa armigera larvae; experiment: Bioassay with cotton leaf artificial diet, growth and development of larvae; assay type: in vivo
Description: Helicoverpa armigera larvae were raised on an artificial diet based on cotton leaves. One hundred ml of cotton leaf artificial diet was composed of 3 g cotton leaf powder (see below), 2 g Tortula yeast, 2.4 g wheat germ, 3.2 g ascorbic acid, 0.08 g sorbic acid, 0.16 g paraben (mould inhibitor), 0.08 ml linseed oil, 0.16 ml wheatgerm oil, 0.028 g ampicillin, 0.028 g streptomycin, 3.2 g agar and 80 ml water. Cotton leaf powder was prepared from freshly picked young, healthy cotton leaves which had been rapidly frozen in liquid nitrogen and freeze dried before they were ground to a fine powder using a mortar and pestle. Test diets contained the cyclic Kalata B1 peptide at 0.15% w/v of diet (high kalata) or 0.03% w/v of diet (low kalata), linear peptide (backbone chain opened between residues 7 and 8 [see FIG. 1A] at 0.15% w/v of diet. The control diet contained casein at 0.15% w/v of diet. The diet was mixed and dispensed as described for the Haricot bean diet and the bioassay was conducted in the same manner.
Newly hatched larvae were fed on an artificial diet based on cotton leaves, with and without added Kalata B1. […] Larvae on the Kalata B1 diet were about 18% of the size of those fed on the control diet.
Kalata peptides isolated from leaves are normally cyclic. The inventors sought to determine whether cyclization was essential for biological activity against insects. Newly hatched H. armigera larvae were added to an artificial diet based on cotton leaves which had been supplemented with cyclic Kalata B1 at either 0.15% w/v of diet or 0.03% w/v of diet. Growth of these larvae was compared to growth of larvae on diet with no added peptide or with added linear Kalata B1 at 0.15% w/v of the diet. Linear Kalata B1 is identical to cyclic Kalata B1 except the backbone chain is open between residues 7 and 8 [see FIG. 1A].

## Kalata B1: 29 amino acid peptide with cyclic backbone and cystine knot from O. affinis (SEQ ID NO: 41) (cyclo(VCGETCVGGTCNTPGCTCSWPVCTRNGLP); disulfide (positions not given here); also: cystine knot, pairings not given here; listed as Oldenlandia affinis)
[1]; 0.825 μmol/g of diet, 16 days, most control larvae at fifth instar
  instar stage of development reached by survivors after 16 days: none of the 12 survivors had progressed past the first instar stage of development
[1]; 0.825 μmol/g of diet, day 16
  larvae that failed to survive past day 16: 50%
[1]; 0.825 μmol/g of diet, first six days, twenty neonates
  mortality in the first six days: No mortality
[1]; 16 days, control diet ~30 mm (FIG. 13C)
  size of larvae after 16 days on artificial diet: ~5 mm
[1]; Haricot bean diet with peptide 0.825 μmol/g of diet
  effect on the development of larvae: significant effect
[2]; cotton leaf diet with added Kalata B1, 12 days
  size of larvae relative to those fed on the control diet: about 18%
[2]; cotton leaf diet, 12 days, control larvae at third to fourth instar
  instar stage of development reached after 12 days: failed to progress past the first instar stage of development
[2]; cyclic form at one fifth the concentration of the linear form (0.03% vs 0.15% w/v of diet)
  effect on growth compared with the linear form: more significant effect on growth
